Assay [1] addresses T1, recombinant human oxytocin receptors (Homo sapiens, UniProt P30559).
T1 construct: expressed in transfected cells; host or cells: HEK-293, transient expression; lysed and homogenized cells
T1 sequence (P30559 1-389): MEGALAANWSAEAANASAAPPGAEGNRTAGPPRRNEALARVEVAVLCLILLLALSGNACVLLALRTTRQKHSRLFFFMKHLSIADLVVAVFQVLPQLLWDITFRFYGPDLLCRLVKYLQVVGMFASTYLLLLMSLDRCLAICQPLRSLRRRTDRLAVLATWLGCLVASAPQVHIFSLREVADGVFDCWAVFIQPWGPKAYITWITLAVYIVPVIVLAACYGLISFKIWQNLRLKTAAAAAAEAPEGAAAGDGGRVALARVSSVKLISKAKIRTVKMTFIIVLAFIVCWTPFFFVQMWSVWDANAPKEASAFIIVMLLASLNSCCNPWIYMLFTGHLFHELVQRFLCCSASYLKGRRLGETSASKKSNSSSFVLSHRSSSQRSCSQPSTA
Description: Oxytocin receptor binding assay (3H-oxytocin, HEK-293 cells). The following applies: selectivity quotient, human OT vs human V1b. As for the experimental part:
The residue was taken up in ice-cold lysis buffer (50 mM Tris-HCl, 10% glycerol, pH 7.4 and Roche complete protease inhibitor) and subjected to an osmotic shock at 4° C. for 20 minutes. The lyzed cells were then centrifuged at 750×g at 4° C. for 20 minutes, the residue was taken up in incubation buffer, and aliquots of 10^7 cells/ml were prepared. The aliquots were frozen at −80° C. until used.
On the day of the experiment, the cells were thawed, diluted with incubation buffer and homogenized using a Multipette Combitip (Eppendorf, Hamburg). […] Triplicate determinations were set up. Bound and free radioligand were separated by filtration under vacuum with Whatman GF/B glass fiber filters with the aid of a Skatron cell harvester 7000. The bound radioactivity was determined by liquid scintillation measurement in a Tricarb Beta counter, model 2000 or 2200CA (Packard).

In assay [2] the target is T2, human vasopressin V1b receptor (Homo sapiens, UniProt P47901).
T2 construct: expressed in transfected cells; host or cells: CHO-K1 (cell line hV1b_3H2_CHO), membranes
T2 sequence (P47901 1-424): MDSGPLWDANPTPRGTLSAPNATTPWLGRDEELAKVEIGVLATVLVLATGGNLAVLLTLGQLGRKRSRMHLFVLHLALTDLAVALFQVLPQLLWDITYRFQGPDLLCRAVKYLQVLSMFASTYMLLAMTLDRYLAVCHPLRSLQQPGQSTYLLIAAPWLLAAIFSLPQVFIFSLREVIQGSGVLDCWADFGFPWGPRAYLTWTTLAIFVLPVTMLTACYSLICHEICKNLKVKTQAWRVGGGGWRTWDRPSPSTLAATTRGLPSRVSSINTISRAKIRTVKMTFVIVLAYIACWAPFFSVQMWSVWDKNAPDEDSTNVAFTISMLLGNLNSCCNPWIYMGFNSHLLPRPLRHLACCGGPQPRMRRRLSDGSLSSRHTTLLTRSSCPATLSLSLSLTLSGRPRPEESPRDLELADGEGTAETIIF
Description: Vasopressin V1b receptor binding assay (3H-AVP displacement, CHO-K1 membranes). How it is done:
1. Vasopressin V1b Receptor Binding Assay:
The substance concentration was further diluted 1:5 in the assay mixture (2% DMSO in the mixture).
All determinations were carried out as triplicate determinations.

The target in assay [3] is human vasopressin V1a receptor (Homo sapiens, UniProt P37288). Nature of the assay: Vasopressin V1a receptor binding assay (125I-AVP displacement, CHO-K1 membranes). The following applies: selectivity quotient, human V1a vs human V1b.
Sequence of human vasopressin V1a receptor (P37288 whole entry): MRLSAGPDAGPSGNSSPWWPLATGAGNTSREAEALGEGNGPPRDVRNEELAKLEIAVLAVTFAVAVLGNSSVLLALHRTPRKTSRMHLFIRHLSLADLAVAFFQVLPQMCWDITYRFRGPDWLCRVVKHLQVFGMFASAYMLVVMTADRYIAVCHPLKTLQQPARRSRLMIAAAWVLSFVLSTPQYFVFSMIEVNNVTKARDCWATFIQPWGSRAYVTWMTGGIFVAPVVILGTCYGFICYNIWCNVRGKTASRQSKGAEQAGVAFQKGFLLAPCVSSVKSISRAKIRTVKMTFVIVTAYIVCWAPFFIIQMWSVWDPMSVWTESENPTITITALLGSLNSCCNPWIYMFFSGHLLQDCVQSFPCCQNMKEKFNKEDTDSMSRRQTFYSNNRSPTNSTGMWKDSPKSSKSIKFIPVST

Regarding `CCOc1ncccc1C1(NCc2ccc(N3CCNCC3)cc2)C(=O)N(S(=O)(=O)c2ccc(OC)cc2OC)c2ccc(C#N)cc21` (stereo not drawn) [Example 29, 1-(2,4-Dimethoxyphenylsulfonyl)-3-(2-ethoxypyridin-3-yl)-2-oxo-3-(4-piperazin-1-yl-benzylamino)-2,3-dihydro-1H-indole-5-carbonitrile], the “Ki(h-OT)/Ki(h-V1b)*” value in assay [1] is “+ (10-<25)”. In assay [2], this compound came in with a Ki of 1 to 10 nM. Also, in assay [3], the “Ki(h-V1a)/Ki(h-V1b)*” value is recorded as “++ (25-75)”.

As for `CCOc1ncccc1C1(NCc2ccc(N3CCNCC3)cc2)C(=O)N(S(=O)(=O)c2ccc(OC)cc2)c2ccc(C#N)cc21` (stereo not drawn) [Example 30, 3-(2-Ethoxypyridin-3-yl)-1-(4-methoxyphenylsulfonyl)-2-oxo-3-(4-piperazin-1-yl-benzylamino)-2,3-dihydro-1H-indole-5-carbonitrile], in assay [1], the “Ki(h-OT)/Ki(h-V1b)*” value is “+++ (>75)”. Also, in assay [2], the Ki is 1 to 10 nM. Also, in assay [3], the “Ki(h-V1a)/Ki(h-V1b)*” value is given as “+++ (>75)”.

`CCOc1ncccc1C1(NCc2ccc(N3CCN(CC)CC3)cc2)C(=O)N(S(=O)(=O)c2ccc(OC)cc2)c2ccc(C#N)cc21` (stereo not drawn) [Example 31, 3-(2-Ethoxypyridin-3-yl)-3-[4-(4-ethylpiperazin-1-yl)benzylamino]-1-(4-methoxy-phenylsulfonyl)-2-oxo-2,3-dihydro-1H-indole-5-carbonitrile]: the “Ki(h-OT)/Ki(h-V1b)*” value in assay [1] is “+++ (>75)”. Also, the Ki in assay [2] is < 1 nM. Besides, in assay [3], the “Ki(h-V1a)/Ki(h-V1b)*” value is “+++ (>75)”.

In the case of `CCOc1ncccc1C1(NCc2ccc(N3CCN(C)CC3)cc2)C(=O)N(S(=O)(=O)c2ccc(OC)cc2)c2cc(F)c(C#N)cc21` (stereo not drawn) [Example 33, 3-(2-Ethoxypyridin-3-yl)-6-fluoro-1-(4-methoxyphenylsulfonyl)-3-[4-(4-methylpiperazin-1-yl)benzylamino]-2-oxo-2,3-dihydro-1H-indole-5-carbonitrile], the “Ki(h-OT)/Ki(h-V1b)*” value in assay [1] is given as “+++ (>75)”. In addition, in assay [2], the Ki was < 1 nM. For the same compound, in assay [3], the “Ki(h-V1a)/Ki(h-V1b)*” value is “+++ (>75)”.

Consider `CCOc1ncccc1C1(NCc2ccc(N3CCNCC3)cc2)C(=O)N(S(=O)(=O)c2ccc(OC)cc2)c2cc(F)c(C#N)cc21` (stereo not drawn) [Example 34, 3-(2-Ethoxypyridin-3-yl)-6-fluoro-1-(4-methoxyphenylsulfonyl)-2-oxo-3-(4-piperazin-1-yl-benzylamino)-2,3-dihydro-1H-indole-5-carbonitrile], for which the “Ki(h-OT)/Ki(h-V1b)*” value in assay [1] was “+++ (>75)”. Moreover, the Ki in assay [2] lay within 1 to 10 nM. For the same compound, the “Ki(h-V1a)/Ki(h-V1b)*” value in assay [3] is on record as “+ (10-<25)”.

`CCOc1ncccc1C1(NCc2ccc(N3CCN(CC)CC3)cc2)C(=O)N(S(=O)(=O)c2ccc(OC)cc2)c2cc(F)c(C#N)cc21` (stereo not drawn) [Example 35, 3-(2-Ethoxypyridin-3-yl)-3-[4-(4-ethylpiperazin-1-yl)benzylamino]-6-fluoro-1-(4-methoxyphenylsulfonyl)-2-oxo-2,3-dihydro-1H-indole-5-carbonitrile]: the “Ki(h-OT)/Ki(h-V1b)*” value in assay [1] was “+++ (>75)”. This compound also showed a Ki in assay [2] of 1 to 10 nM. Further, the “Ki(h-V1a)/Ki(h-V1b)*” value in assay [3] is listed as “+ (10-<25)”.

Take `CCOc1ccccc1C1(NCc2ccc(N3CCN(C)CC3)cc2)C(=O)N(S(=O)(=O)c2ccc(OC)cc2)c2ccc(C#N)cc21` (stereo not drawn) [Example 37, 3-(2-Ethoxyphenyl)-1-(4-methoxyphenylsulfonyl)-3-[4-(4-methylpiperazin-1-yl)-benzylamino]-2-oxo-2,3-dihydro-1H-indole-5-carbonitrile]: the “Ki(h-OT)/Ki(h-V1b)*” value in assay [1] is “+++ (>75)”. In addition, the Ki in assay [2] lay in the range of 1 to 10 nM. Moreover, in assay [3], the “Ki(h-V1a)/Ki(h-V1b)*” value was “++ (25-75)”.

On to `CCOc1ncccc1C1(NCc2cccc(N3CCN(C)CC3)c2)C(=O)N(S(=O)(=O)c2ccc(OC)cc2OC)c2ccc(I)cc21` (stereo not drawn) [Example 38, 1-(2,4-Dimethoxyphenylsulfonyl)-3-(2-ethoxypyridin-3-yl)-5-iodo-3-[3-(4-methylpiperazin-1-yl)benzylamino]-1,3-dihydroindol-2-one], for which the “Ki(h-OT)/Ki(h-V1b)*” value in assay [1] is reported as “+ (10-<25)”. In assay [2], this compound showed a Ki of 1 to 10 nM. In addition, in assay [3], the “Ki(h-V1a)/Ki(h-V1b)*” value is “+ (10-<25)”.

With `CCOc1ncccc1C1(NCc2cccc(N3CCN(C)CC3)c2)C(=O)N(S(=O)(=O)c2ccc(OC)cc2)c2ccc(I)cc21` (stereo not drawn) [Example 40, 3-(2-Ethoxypyridin-3-yl)-5-iodo-1-(4-methoxyphenylsulfonyl)-3-[3-(4-methylpiperazin-1-yl)-benzylamino]-1,3-dihydroindol-2-one], the “Ki(h-OT)/Ki(h-V1b)*” value in assay [1] is “++ (25-75)”. The inhibitory constant (Ki) in assay [2] was in the range of 1 to 10 nM. The “Ki(h-V1a)/Ki(h-V1b)*” value in assay [3] is recorded as “++ (25-75)”.

In the case of `CCOc1ncccc1C1(NCc2cccc(N3CCN(C)CC3)c2)C(=O)N(S(=O)(=O)c2ccccc2OC)c2ccc(I)cc21` (stereo not drawn) [Example 41, 3-(2-Ethoxypyridin-3-yl)-5-iodo-1-(2-methoxyphenylsulfonyl)-3-[3-(4-methylpiperazin-1-yl)-benzylamino]-1,3-dihydroindol-2-one], the “Ki(h-OT)/Ki(h-V1b)*” value in assay [1] was “++ (25-75)”. This compound also returned a Ki in assay [2] of 1 to 10 nM. Also, the “Ki(h-V1a)/Ki(h-V1b)*” value in assay [3] is given as “++ (25-75)”.

Regarding `CCOc1ncccc1C1(NCc2cccc(N3CCN(C)CC3)c2)C(=O)N(S(=O)(=O)c2ccc(OC)cc2)c2ccc(C#N)cc21` (stereo not drawn) [Example 43, 3-(2-Ethoxypyridin-3-yl)-1-(4-methoxyphenylsulfonyl)-3-[3-(4-methylpiperazin-1-yl)-benzylamino]-2-oxo-2,3-dihydro-1H-indole-5-carbonitrile], in assay [1], the “Ki(h-OT)/Ki(h-V1b)*” value is on record as “+ (10-<25)”. In assay [2], the Ki is 1 to 10 nM. Also, the “Ki(h-V1a)/Ki(h-V1b)*” value in assay [3] is given as “+++ (>75)”.

Take `CCOc1ncccc1C1(Nc2ccc(N3CCN(C)CC3)cc2)C(=O)N(S(=O)(=O)c2ccc(OC)cc2)c2ccc(I)cc21` (stereo not drawn) [Example 50, 3-(2-Ethoxypyridin-3-yl)-5-iodo-1-(4-methoxyphenylsulfonyl)-3-[4-(4-methylpiperazin-1-yl)-phenylamino]-1,3-dihydroindol-2-one]: the “Ki(h-OT)/Ki(h-V1b)*” value in assay [1] is “+++ (>75)”. In addition, the Ki in assay [2] is 1 to 10 nM. The “Ki(h-V1a)/Ki(h-V1b)*” value in assay [3] was “+ (10-<25)”.

On to `CCOc1ncccc1C1(Nc2ccc(N3CCN(CC)CC3)cc2)C(=O)N(S(=O)(=O)c2ccc(OC)cc2)c2ccc(C#N)cc21` (stereo not drawn) [Example 57, 3-(2-Ethoxypyridin-3-yl)-3-[4-(4-ethylpiperazin-1-yl)phenylamino]-1-(4-methoxyphenylsulfonyl)-2-oxo-2,3-dihydro-1H-indole-5-carbonitrile], for which the “Ki(h-OT)/Ki(h-V1b)*” value in assay [1] was “+++ (>75)”. The compound further yielded a Ki in assay [2] of 10 to 100 nM. Moreover, in assay [3], the “Ki(h-V1a)/Ki(h-V1b)*” value is reported as “++ (25-75)”.

Take `CCOc1ncccc1C1(Nc2ccc(N3CCN(C)CC3)cc2)C(=O)N(S(=O)(=O)c2ccc(OC)cc2)c2cc(F)c(C#N)cc21` (stereo not drawn) [Example 59, 3-(2-Ethoxypyridin-3-yl)-6-fluoro-1-(4-methoxyphenylsulfonyl)-3-[4-(4-methylpiperazin-1-yl)phenylamino]-2-oxo-2,3-dihydro-1H-indole-5-carbonitrile]: the “Ki(h-OT)/Ki(h-V1b)*” value in assay [1] is “+++ (>75)”. The compound further showed an inhibitory constant (Ki) in assay [2] of 1 to 10 nM. Also, the “Ki(h-V1a)/Ki(h-V1b)*” value in assay [3] was “++ (25-75)”.

In the case of `CCOc1ncccc1C1(Nc2cccc(N3CCN(C)CC3)c2)C(=O)N(S(=O)(=O)c2ccc(OC)cc2OC)c2ccc(I)cc21` (stereo not drawn) [Example 60, 1-(2,4-Dimethoxyphenylsulfonyl)-3-(2-ethoxypyridin-3-yl)-5-iodo-3-[3-(4-methylpiperazin-1-yl)phenylamino]-1,3-dihydroindol-2-one], the “Ki(h-OT)/Ki(h-V1b)*” value in assay [1] was “++ (25-75)”. Further, the Ki in assay [2] was in the range of 1 to 10 nM. Moreover, the “Ki(h-V1a)/Ki(h-V1b)*” value in assay [3] is recorded as “++ (25-75)”.

On to `CCOc1ncccc1C1(Nc2ccc(N3CCN(C)CC3)nc2)C(=O)N(S(=O)(=O)c2ccc(OC)cc2)c2ccc(I)cc21` (stereo not drawn) [Example 68, 3-(2-Ethoxypyridin-3-yl)-5-iodo-1-(4-methoxyphenylsulfonyl)-3-[6-(4-methylpiperazin-1-yl)-pyridin-3-ylamino]-1,3-dihydroindol-2-one], for which, in assay [1], the “Ki(h-OT)/Ki(h-V1b)*” value was “++ (25-75)”. This compound also showed a Ki in assay [2] of 1 to 10 nM. For the same compound, the “Ki(h-V1a)/Ki(h-V1b)*” value in assay [3] is “+ (10-<25)”.

These data come from patent publication US8629148B2, “Substituted oxindole-derivatives and the use thereof for the treatment of vasopressin-dependent illnesses” (AbbVie Deutschland GmbH & Co. KG, priority 2007, dated 2014).
